In US20210038730A1, “PEPTIDE NANOFIBERS” (UNIVERSITY OF PORTSMOUTH HIGHER EDUCATION CORPORATION, priority 2018, published 2021):

Columns and labels:
[1] = Permeability across in vitro blood-brain barrier model
Experimental: (§1) In order to test the permeability of TPGnRH nanofibers across the blood-brain barrier (BBB), a static contact co-culture was set up according to a previous method^7. Briefly, human astrocytes (SC-1800, 25,000 cells/well) were seeded on the abluminal side of a 24-well plate Transwell polycarbonate membrane (3 μm of a pore size, Corning Star, Deeside, UK) coated with human fibronectin. Cells were allowed to attach for 3 days, and then human brain microvascular endothelial cells (hCMEC/D3, 75,000 cells/well) were seeded on the luminal side of the Transwell and co-cultured with astrocytes for five days with a daily change of the media. Transendothelial resistance was measured using EVOM voltohmmeter (World Precision Instruments, Berlin, Germany).
(§2) Transwells were washed with HBSS and immersed into HBSS (600 μL in abluminal side). […] Samples (100 μL) were collected from the abluminal side at specific time-points, and fresh HBSS (100 μL) was used to replace the volume from the abluminal compartments. […] PAX was analysed using reverse phase-HPLC with the gradient method described on Table 2. TR-TPGnRH was quantified in POLARstar Omega plate reader spectrophotometer with λexc 596 and λem 615 nm. The permeability coefficient (Papp) was determined using the equation: […]
(§3) ΔQr, is the flux of drug along time (μg mL^−1), Vr is the volume of the abluminal side (mL), A is the area of the Transwell membrane, C0 is the concentration of drug in the luminal side, and 60, the converser factor from minutes to seconds^8.

SK-OV-3 cells = experiment: Cell uptake of TR-TPGnRH, SK-OV-3; format: cell-based, human
Experimental: (§4) The U-87 MG and SK-OV-3 cells were seeded at 20,000 cells/cm^2 in a 12-well plate (76,000 cells per well). Cells were allowed to attach overnight, and then the media was replaced by fresh media (900 μL) containing TR-TPGnRH (50 μg mL^−1 in PBS, 100 μL, pH 7.4). Subsequently, cells were either incubated at 4 or 37° C. for 1 and 4 hours. At the end of each time-point, cells were washed with HBSS twice to wash the free fibres, incubated with 500 μL TrypLE Enzyme at 37° C. for 3 minutes, and then collected by centrifugation at 1,000 rpm for 5 minutes using a C-28A centrifuge. Cells were then re-suspended in PBS (200 μL) and analysed in BD FACSCalibur™ flow cytometer acquiring at least 10,000 events. Unstained cells were used as a control in the flow cytometry settings.

[2] = test system: hCMEC/D3 endothelial cells; experiment: Cell uptake in endothelial cells (flow cytometry); format: cell-based, human; conditions: 4 hours of incubation, 50 μg mL^−1
Experimental: TPGnRH was labelled with Texas Red (TR) according to the manufacturer's protocol. Endothelial cells were seeded (227,000 cells/cm^2) in 24-well plates, allowed to attach for 24 hours, and then media was replaced by fresh media containing TR-TPGnRH at 50 μg mL^−1 in PBS. Cells were either incubated at 4 or 37° C. for 1 and 4 hours. At the end of a time-point, cells were washed with HBSS to remove the free nanofibers, incubated with 500 μL of TrypLE Express Enzyme and collected by centrifugation. The cell pellet was then re-suspended in PBS, and cells were analysed in BD FACS Calibur™ flow cytometer (BD Biosciences, Wiltshire, UK) acquiring at least 10,000 events. Data were analysed in FlowJo® Software 10.1. Unstained cells were used as a control in the flow cytometry settings.

U-87 MG cells = experiment: Cell uptake of TR-TPGnRH, U-87 MG; format: cell-based, human
Experimental: as §4

[3] = test system: in vitro BBB model (hCMEC/D3 and SC-1800 co-culture); experiment: in vitro
Experimental: as §1, §2, §3

Row | Compound | Papp A→B [1] [×10⁻⁶ cm/s] | Cell uptake (SK-OV-3 cells; SK-OV-3, 1 Hour, 4° C.) | Cell uptake (SK-OV-3 cells; SK-OV-3, 1 Hour, 37° C.) | Cell uptake (SK-OV-3 cells; SK-OV-3, 4 Hours, 4° C.) | Cell uptake (SK-OV-3 cells; SK-OV-3, 4 Hours, 37° C.) | TR-TPGnRH+ cells ([2]; 4° C.) [%] | TR-TPGnRH+ cells ([2]; 37° C.) [%] | Cell uptake (U-87 MG cells; 1 Hour, 4° C.) | Cell uptake (U-87 MG cells; 1 Hour, 37° C.) | Cell uptake (U-87 MG cells; 4 Hours, 4° C.) | Cell uptake (U-87 MG cells; 4 Hours, 37° C.) | Papp [3]
1 | CCCCCCCCCCCCCCCC(=O)Oc1ccc(C[C@H](NC(=O)[C@H](CO)NC(=O)[C@H](Cc2c[nH]c3ccccc23)NC(=O)[C@H](Cc2c[nH]cn2)NC(=O)[C@H](CCC(=O)O)NS(=O)(=O)c2ccc(-c3c4cc5c6c(c4[o+]c4c7c8c(cc34)CCCN8CCC7)CCCN6CCC5)c(S(=O)(=O)[O-])c2)C(=O)NCC(=O)N[C@@H](CC(C)C)C(=O)N[C@@H](CCCNC(=N)N)C(=O)N2CCC[C@H]2C(=O)NCC(N)=O)cc1 [Texas Red-TPGnRH] | 6 | 10.02 ± 0.52 | 13.35 ± 0.53 | 52.47 ± 3.34 | 49.36 ± 4.66 | 0.18±0.05 | 68.43±0.85 | 20.51 ± 3.10 | 32.64 ± 5.04 | 52.36 ± 10.20 | 91.12 ± 1.11 | 
2 | Texas Red [Free Texas Red] |  |  |  |  |  |  |  |  |  |  |  | 111.78 ± 24.30 ×10^−6 cm s^−1
